In ChEMBL document CHEMBL2163330, “Dynamic modeling of human 5-lipoxygenase-inhibitor interactions helps to discover novel inhibitors” (J Med Chem, 2012) one finds inhibition and IC50 data, which are given here for 31 molecules.

For experiment [1], the target named is T1, Leukotriene A-4 hydrolase (Homo sapiens) (UniProt P09960).
T1 sequence (whole entry): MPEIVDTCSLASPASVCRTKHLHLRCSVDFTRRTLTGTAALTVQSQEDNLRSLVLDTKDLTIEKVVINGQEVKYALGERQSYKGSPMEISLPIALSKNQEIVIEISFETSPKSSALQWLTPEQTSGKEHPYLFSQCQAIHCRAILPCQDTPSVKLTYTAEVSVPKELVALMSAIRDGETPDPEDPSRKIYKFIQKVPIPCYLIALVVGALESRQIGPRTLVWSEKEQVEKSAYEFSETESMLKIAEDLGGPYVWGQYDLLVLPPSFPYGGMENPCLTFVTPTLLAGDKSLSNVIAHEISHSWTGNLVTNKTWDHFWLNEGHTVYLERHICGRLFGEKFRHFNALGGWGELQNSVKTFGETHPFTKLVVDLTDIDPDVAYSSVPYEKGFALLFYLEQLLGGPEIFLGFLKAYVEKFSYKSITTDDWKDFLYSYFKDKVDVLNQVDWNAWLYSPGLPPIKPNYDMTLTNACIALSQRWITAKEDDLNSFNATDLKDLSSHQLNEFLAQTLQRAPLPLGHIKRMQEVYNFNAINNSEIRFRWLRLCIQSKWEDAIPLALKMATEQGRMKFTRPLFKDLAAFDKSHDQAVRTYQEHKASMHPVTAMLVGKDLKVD
Description: Inhibition of epoxide hydrolase activity of human recombinant leukotriene A4 hydrolase expressed in Escherichia coli assessed as LTB4 production at 100 uM by RP-HPLC.

For experiment [2], the target named is T2, Polyunsaturated fatty acid 5-lipoxygenase (Homo sapiens, UniProt P09917).
T2 sequence (P09917 whole entry): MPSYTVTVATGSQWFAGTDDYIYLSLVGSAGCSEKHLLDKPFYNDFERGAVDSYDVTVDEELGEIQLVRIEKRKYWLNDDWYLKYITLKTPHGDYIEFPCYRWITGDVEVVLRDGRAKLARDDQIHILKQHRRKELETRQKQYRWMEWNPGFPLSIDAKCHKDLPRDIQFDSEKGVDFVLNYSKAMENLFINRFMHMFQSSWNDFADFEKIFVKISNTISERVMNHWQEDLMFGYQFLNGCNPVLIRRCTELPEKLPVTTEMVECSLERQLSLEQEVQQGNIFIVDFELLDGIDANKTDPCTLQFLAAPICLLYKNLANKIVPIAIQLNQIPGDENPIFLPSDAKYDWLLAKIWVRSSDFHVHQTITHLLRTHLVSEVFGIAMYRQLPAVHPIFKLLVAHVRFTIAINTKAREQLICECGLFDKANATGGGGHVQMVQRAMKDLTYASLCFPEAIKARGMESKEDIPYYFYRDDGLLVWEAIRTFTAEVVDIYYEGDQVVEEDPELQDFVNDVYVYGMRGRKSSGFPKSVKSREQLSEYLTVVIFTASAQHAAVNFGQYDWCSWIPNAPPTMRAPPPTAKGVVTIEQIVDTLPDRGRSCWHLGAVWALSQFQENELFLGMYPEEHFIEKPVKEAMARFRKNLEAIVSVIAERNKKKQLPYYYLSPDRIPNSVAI
Description: Inhibition of human recombinant 5-LOX expressed in Escherichia coli […] incubated 10 mins before substrate addition by fluorescence spectrophotometry based cell free system assay.

In experiment [3] the target is T2, Polyunsaturated fatty acid 5-lipoxygenase. Description: Inhibition of human 5-LOX in A23187-induced human whole blood assessed as reduction in LTB4 production pre-incubated for 20 mins before A23187 addition by enzyme immunoassay.
In experiment [4] the target is Prostaglandin G/H synthase 1 (Homo sapiens) (UniProt P23219). The experiment can be described thus: Inhibition of purified COX1 assessed as formation of oxidized TMPD during reduction of PGG2 to PGH2 preincubated for 15 mins by chromogenic assay.
Sequence of Prostaglandin G/H synthase 1 (Homo sapiens) (P23219 whole entry): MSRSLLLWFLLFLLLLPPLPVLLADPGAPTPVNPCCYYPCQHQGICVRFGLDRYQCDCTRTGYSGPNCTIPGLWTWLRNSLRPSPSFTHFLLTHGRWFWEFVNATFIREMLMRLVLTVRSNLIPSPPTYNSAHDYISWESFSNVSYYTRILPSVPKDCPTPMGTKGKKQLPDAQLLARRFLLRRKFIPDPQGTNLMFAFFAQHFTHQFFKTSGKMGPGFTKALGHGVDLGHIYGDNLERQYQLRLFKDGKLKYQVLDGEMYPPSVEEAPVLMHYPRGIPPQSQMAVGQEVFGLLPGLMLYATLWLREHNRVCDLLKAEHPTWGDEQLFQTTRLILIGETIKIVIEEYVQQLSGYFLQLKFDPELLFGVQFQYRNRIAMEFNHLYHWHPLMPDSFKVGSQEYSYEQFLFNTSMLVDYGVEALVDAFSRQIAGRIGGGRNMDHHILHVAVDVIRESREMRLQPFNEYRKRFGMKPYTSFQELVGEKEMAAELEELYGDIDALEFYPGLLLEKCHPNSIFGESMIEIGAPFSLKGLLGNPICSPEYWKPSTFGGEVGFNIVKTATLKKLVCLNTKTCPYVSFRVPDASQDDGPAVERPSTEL
Experiment [5] concerns the target T3, Prostaglandin G/H synthase 2 (Homo sapiens) (UniProt P35354).
T3 sequence (whole entry): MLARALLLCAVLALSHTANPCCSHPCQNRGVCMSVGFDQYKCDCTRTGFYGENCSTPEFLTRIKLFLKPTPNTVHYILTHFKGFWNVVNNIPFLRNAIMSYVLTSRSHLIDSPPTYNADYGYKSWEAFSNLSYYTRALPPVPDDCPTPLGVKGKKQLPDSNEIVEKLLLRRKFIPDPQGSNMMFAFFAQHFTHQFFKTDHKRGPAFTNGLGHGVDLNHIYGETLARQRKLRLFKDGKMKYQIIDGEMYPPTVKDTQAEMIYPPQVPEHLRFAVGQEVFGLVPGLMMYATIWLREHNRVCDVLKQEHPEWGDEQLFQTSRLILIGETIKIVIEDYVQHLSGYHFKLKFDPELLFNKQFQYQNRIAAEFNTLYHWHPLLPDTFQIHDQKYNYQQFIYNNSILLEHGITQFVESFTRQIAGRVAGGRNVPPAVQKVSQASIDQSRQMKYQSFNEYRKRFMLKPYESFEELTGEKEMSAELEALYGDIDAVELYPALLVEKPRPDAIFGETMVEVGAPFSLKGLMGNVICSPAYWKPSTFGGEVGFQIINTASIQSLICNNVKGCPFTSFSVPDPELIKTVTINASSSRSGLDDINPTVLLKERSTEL
The experiment can be described thus: Inhibition of purified COX2 assessed as formation of oxidized TMPD during reduction of PGG2 to PGH2 preincubated for 15 mins by chromogenic assay.

Experiment [6] concerns the target T4, Prostaglandin E synthase (Homo sapiens, UniProt O14684).
T4 sequence (O14684 whole entry): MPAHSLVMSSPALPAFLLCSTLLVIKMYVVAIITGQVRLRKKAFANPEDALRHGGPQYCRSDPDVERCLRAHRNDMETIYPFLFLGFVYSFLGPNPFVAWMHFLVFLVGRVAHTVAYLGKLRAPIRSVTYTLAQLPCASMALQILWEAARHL
The experiment can be described thus: Inhibition of mPGES1 expressed in Escherichia coli Rosetta-DE3 assessed as reduction in PGE2 production by enzyme immunoassay based cell-free system assay.

Experiment [7] concerns the target T4, Prostaglandin E synthase. Description: Inhibition of mPGES1 in LPS-stimulated human whole blood assessed as reduction in PGE2 production incubated for 24 hrs at 37 degC by enzyme immunoassay.

Usually inhibition stands for the percentage by which the read-out fell short of the control. One may read the IC50 as the concentration that inhibits the measured activity by half.

In the case of `C/C(NCc1ccc(Cl)c(Cl)c1)=C1\C(=O)N(c2nc3ccccc3s2)N=C1C(F)(F)F`, the inhibition in experiment [1] was less than 50%. Also, the IC50 in experiment [2] was 70 µM; in experiment [3], more than 100 µM.

On to `Cc1cccc(NC2=NS(=O)(=O)c3cc([N+](=O)[O-])ccc32)c1`, for which the inhibition in experiment [1], in experiment [4] and in experiment [5] was less than 50% in each case.

For `Cc1ccc2cccc(OC(=O)c3cccc([N+](=O)[O-])c3)c2n1`, the inhibition in experiment [1] was less than 50%. For the same molecule, the figures for the IC50 in experiment [2] and in experiment [3] were 4.6 µM and more than 100 µM, respectively.

As for `Clc1ccc(-c2nn3c(Cc4ccccc4)nnc3s2)cc1Cl`, the inhibition in experiment [1] is less than 50%. For the same molecule, the IC50 in experiment [2] was 37.5 µM; in experiment [3], more than 100 µM.

For the molecule `O=C1OC(c2ccc3ccccc3c2)=N/C1=C\c1ccc(Cl)cc1`, the inhibition in experiment [1] was less than 50%. Moreover, the IC50 is 80 µM in experiment [2] and more than 100 µM in experiment [3].

Consider `Cc1cccc(N=C2NS(=O)(=O)c3cc([N+](=O)[O-])ccc32)c1`, for which the IC50 in experiment [6] stood at 6.7 µM; in experiment [7] it was 15.6 µM; in experiment [2] it was 1.87 µM; in experiment [3], 9.7 µM.

Turning to `Cc1cc(Cl)ccc1NC(=O)Cn1nnc2sc3c(c2c1=O)CCCC3`, the inhibition in experiment [1] was less than 50%. In addition, the IC50 in experiment [2] was 44 µM; in experiment [3], more than 100 µM.

For the molecule `c1ccc2c(c1)OCC(c1nn3c(Cn4nnc5ccccc54)nnc3s1)O2` (stereo not drawn), in experiment [1], the inhibition was less than 50%. For the same molecule, the IC50 is 97 µM in experiment [2] and more than 100 µM in experiment [3].

Turning to `O=[N+]([O-])c1ccc(CSc2cc3ccccc3[nH]2)c([N+](=O)[O-])c1`, in experiment [1], the inhibition is less than 50%. Also, the IC50 worked out at 0.8 µM in experiment [2] and 23.9 µM in experiment [3].

Turning to `COc1ccc(-c2nnc3sc(/C=C/c4ccccc4OC)nn23)cc1`, in experiment [1], the inhibition is less than 50%. The IC50 was 17 µM in experiment [2] and more than 100 µM in experiment [3].

Regarding `Cn1ncc(Cl)c1C(=O)N/N=C/c1ccccc1OC(=O)c1ccc([N+](=O)[O-])cc1`, the inhibition in experiment [1] was less than 50%. Further, the IC50 in experiment [2] was 5.4 µM; in experiment [3], more than 100 µM.

Take `O=C(O/N=C/c1ccc(Br)cc1)c1cc([N+](=O)[O-])cc([N+](=O)[O-])c1`: in experiment [1], the inhibition was less than 50%. For the same molecule, the results for the IC50 in experiment [2] and in experiment [3] were 0.62 µM and 36 µM, respectively.

On to `O=C(COC(=O)c1ccc(C(=O)c2ccc([N+](=O)[O-])cc2)cc1)c1ccccc1`, for which, in experiment [1], the inhibition was less than 50%. Besides, the IC50 in experiment [2] came out at 1.49 µM; in experiment [3], 48 µM.

Regarding `O=C(NCCNC(=O)c1ccc([N+](=O)[O-])o1)c1ccc2ccccc2n1`, the inhibition in experiment [1] is less than 50%. For the same molecule, the values for the IC50 in experiment [2] and in experiment [3] were 82 µM and more than 100 µM, respectively.

Take `Cc1cccc(C2=N/C(=C\c3ccc(-c4cccc(Cl)c4)o3)C(=O)O2)c1`: in experiment [1], the inhibition is less than 50%. Also, the IC50 in experiment [2] was 14.2 µM; in experiment [3], more than 100 µM.

With `O=C1c2ccc([N+](=O)[O-])cc2C(=O)N1CNc1ccc([N+](=O)[O-])cc1`, in experiment [1], the inhibition is less than 50%. The IC50 in experiment [2] came to 5.3 µM; in experiment [3] it was 38 µM.

`COc1ccc(/C=C2\N=C(c3ccc(Cl)c([N+](=O)[O-])c3)OC2=O)c(OC)c1OC`: the inhibition in experiment [1] is less than 50%. In addition, the IC50 in experiment [2] was 20 µM; in experiment [3], more than 100 µM.

Regarding `O=C(NC1c2ccccc2Oc2ccccc21)c1ccc(Cl)c([N+](=O)[O-])c1`, the inhibition in experiment [1] is less than 50%. Further, the IC50 is 67 µM in experiment [2] and more than 100 µM in experiment [3].

With `COC(=O)c1ccc(NC(=S)NC(=O)c2cc(-c3ccccc3)nc3ccccc23)cc1`, in experiment [1], the inhibition was less than 50%. The IC50 was 45 µM in experiment [2] and more than 100 µM in experiment [3].

Consider `COc1cc(Cl)cc(/C=C2/SC(=O)N(Cc3ccc(F)cc3)C2=O)c1O`, for which the inhibition in experiment [1] was less than 50%. For the same molecule, the half-maximal inhibitory concentration (IC50) in experiment [2] is 68 µM; in experiment [3], more than 100 µM.

Turning to `c1ccc(SCc2nnc3sc(-c4ccc5c(c4)OCCO5)nn23)cc1`, in experiment [1], the inhibition was less than 50%. The IC50 in experiment [2] was 70 µM; in experiment [3] it was more than 100 µM.

In the case of `N#C/C(=C(/O)c1ccc(Cl)c([N+](=O)[O-])c1)c1nc2ccccc2s1`, the inhibition in experiment [1] was less than 50%. The IC50 is 53 µM in experiment [2] and more than 100 µM in experiment [3].

`CCOc1cc(/C=N\Nc2nc3ccccc3s2)cc([N+](=O)[O-])c1O`: in experiment [1], the inhibition is less than 50%. In addition, the half-maximal inhibitory concentration (IC50) was determined as 0.86 µM in experiment [2] and 40 µM in experiment [3].

Regarding `CC(C)(C)OC(=O)NNS(=O)(=O)c1cccc([N+](=O)[O-])c1`, the inhibition in experiment [1] is less than 50%. Further, the values for the IC50 in experiment [2] and in experiment [3] were 81 µM and more than 100 µM, respectively.

With `O=C(CSc1nnnn1-c1ccc(Cl)c(C(=O)O)c1)Nc1ccc(F)cc1`, in experiment [1], the inhibition is less than 50%. Besides, the IC50 in experiment [2] was 15 µM; in experiment [3], more than 100 µM.

Consider `O=[N+]([O-])c1ccc(Cl)c(S(=O)(=O)n2cnc3ccccc32)c1`, for which the inhibition in experiment [1] is less than 50%. Moreover, the 50% inhibitory concentration (IC50) in experiment [2] came to 6.9 µM; in experiment [3], 8.1 µM.

As for `CCOc1ccc(S(=O)(=O)N(CC(=O)N2CCc3ccccc3C2)c2ccccc2)cc1`, in experiment [1], the inhibition was less than 50%. The IC50 in experiment [2] was 29 µM; in experiment [3] it was more than 100 µM.

As for `O=C(Oc1cccc2ccccc12)c1cc([N+](=O)[O-])cc([N+](=O)[O-])c1`, the inhibition in experiment [1], in experiment [4] and in experiment [5] was less than 50% each time. Besides, the IC50 in experiment [6] was 3.6 µM; in experiment [7] it was 7.6 µM; in experiment [2], 1.04 µM; in experiment [3], 8.6 µM.

In the case of `Cc1nn(Cc2ccc(F)cc2)c(C)c1NC(=O)C1CC(c2cccc(Br)c2)=NO1` (stereo not drawn), the inhibition in experiment [1] is less than 50%. The IC50 in experiment [2] is 65 µM; in experiment [3], more than 100 µM.

Take `O=c1/c(=C/c2cc(I)c(O)c([N+](=O)[O-])c2)sc2nc3ccccc3n12`: the inhibition in experiment [1] is less than 50%. In addition, the figures for the IC50 in experiment [2] and in experiment [3] were 33.8 µM and more than 100 µM, respectively.

Consider `Cc1ccc(Sc2nc([N+](=O)[O-])nn2CC(=O)c2ccccc2)cc1`, for which the inhibition in experiment [1] was less than 50%. Further, the IC50 in experiment [2] amounted to 1.4 µM; in experiment [3] it was 76 µM.
